From ChEMBL document CHEMBL1201862, “PubChem BioAssay data set” (2004)
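In this assay, cells in 96-well plates receive the compound at five concentrations for 48 hours. Endpoints are linearly interpolated between the surrounding concentrations. GI50: concentration for 50% inhibition of growth.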 Active and inactive are the calls of the source. No stated cut-off is given here; in the data, active = GI50 up to about 1.1 µM and inactive = higher.

Columns and labels:
Assay in all cases: NCI anticancer screen, dose series, 48 h
RXF 393 = test system: RXF 393
MDA-MB-231 = test system: MDA-MB-231
SF-268 = test system: SF-268
MOLT-4 = test system: MOLT-4
BT-549 = test system: BT-549
TK-10 = test system: TK-10
MDA-MB-435 = test system: MDA-MB-435
NCI-H226 = test system: NCI-H226
UACC-257 = test system: UACC-257
OVCAR-3 = test system: OVCAR-3
COLO 205 = test system: COLO 205
Malme-3M = test system: Malme-3M
SK-MEL-28 = test system: SK-MEL-28
SK-MEL-2 = test system: SK-MEL-2
786-0 = test system: 786-0
U-251 = test system: U-251
ACHN = test system: ACHN
T47D = test system: T47D
MCF7 = test system: MCF7
HL-60 = test system: HL-60

Structure (SMILES)	GI50 (RXF 393)	GI50 (MDA-MB-231)	GI50 (SF-268)	GI50 (MOLT-4)	GI50 (BT-549)	GI50 (TK-10)	GI50 (MDA-MB-435)	GI50 (NCI-H226)	GI50 (UACC-257)	GI50 (OVCAR-3)	GI50 (COLO 205)	GI50 (Malme-3M)	GI50 (SK-MEL-28)	GI50 (SK-MEL-2)	GI50 (786-0)	GI50 (U-251)	GI50 (ACHN)	GI50 (T47D)	GI50 (MCF7)	GI50 (HL-60)
O=C1NCCCNCCCNCCCNC(=O)c2cccc1n2	18.1 µM (inactive)	> 100 µM (inactive)	> 100 µM (inactive)	> 100 µM (inactive)	> 100 µM (inactive)	> 100 µM (inactive)	> 100 µM (inactive)	> 100 µM (inactive)	> 100 µM (inactive)	> 100 µM (inactive)	> 100 µM (inactive)	> 100 µM (inactive)	> 100 µM (inactive)	63.2 µM (inactive)	> 100 µM (inactive)	> 100 µM (inactive)	> 100 µM (inactive)	–	–	–
COc1cc([C@@H]2c3cc4c(cc3[C@@H](Nc3ccc([N+](=O)[O-])cc3C(=O)c3ccccc3)[C@H]3COC(=O)[C@H]23)OCO4)cc(OC)c1OC	0.573 µM (active)	0.548 µM (active)	0.472 µM (active)	0.306 µM (active)	–	> 100 µM (inactive)	0.071 µM (active)	0.726 µM (active)	–	0.434 µM (active)	0.293 µM (active)	0.481 µM (active)	–	3.28 µM (inactive)	0.425 µM (active)	0.354 µM (active)	0.304 µM (active)	> 100 µM (inactive)	0.26 µM (active)	0.211 µM (active)
CCCCCc1cc2c(cc1O)CC[C@@H]1[C@@H]2CC[C@]2(C)[C@@H](O)CC[C@@H]12	19.5 µM (inactive)	18.4 µM (inactive)	17.7 µM (inactive)	24.3 µM (inactive)	–	16.3 µM (inactive)	15.7 µM (inactive)	14.5 µM (inactive)	21 µM (inactive)	14.3 µM (inactive)	16.1 µM (inactive)	19.1 µM (inactive)	16.2 µM (inactive)	23.3 µM (inactive)	14.8 µM (inactive)	17.6 µM (inactive)	14.1 µM (inactive)	24.5 µM (inactive)	16.4 µM (inactive)	21.3 µM (inactive)
CSc1ccc(NC(=S)NN(C)C)cc1	> 10 µM (inactive)	> 10 µM (inactive)	> 10 µM (inactive)	> 10 µM (inactive)	–	> 10 µM (inactive)	> 10 µM (inactive)	> 10 µM (inactive)	> 10 µM (inactive)	> 10 µM (inactive)	> 10 µM (inactive)	> 10 µM (inactive)	> 10 µM (inactive)	> 10 µM (inactive)	> 10 µM (inactive)	> 10 µM (inactive)	> 10 µM (inactive)	> 10 µM (inactive)	> 10 µM (inactive)	> 10 µM (inactive)
O=[N+]([O-])c1ccc(Cc2nc3cc4ccccc4cc3[nH]2)cc1C(F)(F)F	13.2 µM (inactive)	–	13.6 µM (inactive)	13.1 µM (inactive)	18.2 µM (inactive)	20.2 µM (inactive)	6.12 µM (inactive)	–	14.1 µM (inactive)	10.7 µM (inactive)	4.32 µM (inactive)	9.79 µM (inactive)	24.2 µM (inactive)	20 µM (inactive)	12.7 µM (inactive)	14.8 µM (inactive)	15.8 µM (inactive)	3.33 µM (inactive)	15.5 µM (inactive)	10 µM (inactive)
CN(C)c1n/c(=N/Cc2ccccc2)ss1	> 10 µM (inactive)	> 10 µM (inactive)	> 10 µM (inactive)	1.81 µM (inactive)	–	> 10 µM (inactive)	> 10 µM (inactive)	> 10 µM (inactive)	> 10 µM (inactive)	> 10 µM (inactive)	> 10 µM (inactive)	> 10 µM (inactive)	> 10 µM (inactive)	–	> 6.82 µM (inactive)	> 10 µM (inactive)	> 10 µM (inactive)	> 10 µM (inactive)	> 10 µM (inactive)	> 5.2 µM (inactive)
O=C(O)c1ccccc1.[Ag]	18.2 µM (inactive)	–	21.8 µM (inactive)	2.55 µM (inactive)	27.2 µM (inactive)	7.11 µM (inactive)	16.8 µM (inactive)	> 100 µM (inactive)	5.11 µM (inactive)	12.9 µM (inactive)	1.87 µM (inactive)	1.7 µM (inactive)	16.9 µM (inactive)	14.4 µM (inactive)	17.3 µM (inactive)	18.5 µM (inactive)	6.47 µM (inactive)	2.46 µM (inactive)	13.3 µM (inactive)	3.98 µM (inactive)
